The record followed here is ChEMBL document CHEMBL1156407, “The antiplasmodial activity of isolates from Ajuga remota” (J Nat Prod, 2002).

Calls of active or inactive are those of the source. The rule behind the calls is not given here. A value given as a limit tells only on which side of the number the result lay.

The subject of data set [1] is Plasmodium falciparum. Kind of data set: Antiplasmodial activity after 72 hrs against chloroquine-sensitive Plasmodium falciparum FCA10/GHA at 500 uM by LDH activity. Type of data set: functional, organism-based.
The nature of data set [2]: Cytotoxicity against human A431 cells by MTT assay. Type of data set: cell-based, A-431. The conditions noted are these: read-out: ED50 (the source's name). For orientation: Formazan colour is commonly taken as a measure of viable cells.
Data set [3] can be described thus: Selectivity index, ratio of ED50 for human A431 cells to IC50 for chloroquine-sensitive Plasmodium falciparum FCA10/GHA. The class given is functional, A-431.
Data set [4] concerns Plasmodium falciparum. The data set can be described thus: Antiplasmodial activity after 72 hrs against chloroquine-sensitive Plasmodium falciparum FCA10/GHA as LDH activity. Type of data set: functional, organism-based.

As for `CC(=O)O[C@@]1(C)C[C@@H](O)[C@]2(O)C=CO[C@@H](O[C@@H]3O[C@H](CO)[C@@H](O)[C@H](O)[C@H]3O)[C@@H]21`, in data set [1], the result was inactive. In addition, the CC50 in data set [2] worked out at 310 µM.

In the case of `CC(=O)OC[C@@]12[C@@H](OC(C)=O)C[C@@H](C)[C@](C)(CCC3=CC(=O)OC3)[C@H]1CCC[C@]21CO1` [AJUGARIN I], in data set [3], the Ratio is reported as greater than 4. This molecule also gave an IC50 in data set [4] of 23 µM. The CC50 in data set [2] was greater than 88 µM.

In the case of `O=c1[nH]cc(F)c(=O)[nH]1` [FLUOROURACIL], the CC50 in data set [2] stood at 44 µM.

Regarding `CC(C)C/C=C/C[C@H]1CC[C@@H]2[C@]1(C)CCC1[C@]23C=C[C@]2(C[C@@H](O)CC[C@]12C)OO3` (some centres undefined), the Ratio in data set [3] is greater than 3. The molecule further came in with an IC50 in data set [4] of 8.2 µM. Also, the CC50 in data set [2] is greater than 23 µM.

The term IC50 denotes the concentration that gives 50% inhibition.
